# Values quoted from earlier work, collected in EP2508186A1, “Phenoxazinones or phenothiazones as inhibitors of amyloid formation” (Max-Delbrück-Centrum für Molekulare Medizin, priority 2011, dated 2012).
# Target: T1, Aβ42 (Homo sapiens, UniProt P05067)
# T1 construct: the amyloid-β 1-42 (Aβ42) peptide
# Conditions: previous biochemical investigations; cited from earlier work
# T1 sequence (P05067 672-713 limits assumed): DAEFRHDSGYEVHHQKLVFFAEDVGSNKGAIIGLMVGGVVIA
structure (smiles),measurement,value
CN(C)c1ccc2nc3ccc(=[N+](C)C)cc-3sc2c1 [methylene blue],effect on Aβ42 fibrillogenesis and A11-reactive oligomers,"promotes Aβ42 fibrillogenesis and thereby reduces the amount of A11-reactive, potentially toxic amyloid oligomers"
